Results published in ChEMBL document CHEMBL2385071, “Synthesis and biological investigation of coumarin piperazine (piperidine) derivatives as potential multireceptor atypical antipsychotics” (J Med Chem, 2013).

How the values were obtained:
[1] = tested on: Rattus norvegicus; assay: Antipsychotic activity in po dosed rat assessed as reduction in conditioned avoidance response after 60 mins; assay type: functional
[2] = species on record: Mus musculus; assay: animal or person; details: po
Description: Antipsychotic activity in po dosed mouse assessed as reduction in apomorphine-induced climbing behavior administered for 30 mins prior to apomorphine-challenge measured at 10 to 30 mins post-dose

[3] = AUC (0 to 12 hrs) in rat at 5 mg/kg, iv by HPLC-MS analysis; assay type: ADME, organism-based; set-up: time < 12 hr, dose 5 mg/kg, route intravenous; details: plasma
[4] = biological target: D(2) dopamine receptor (Homo sapiens, UniProt P14416); assay: Agonist activity at dopamine D2 receptor (unknown origin) expressed in CHOK1 cells coexpressing Galpha15 at 10 uM by FLIPR assay relative to control; assay type: cell-based; details: CHO-K1
[5] = AUC (0 to infinity) in rat at 5 mg/kg, iv by HPLC-MS analysis; assay type: ADME, organism-based; set-up: time infinity, dose 5 mg/kg, route intravenous; details: plasma
[6] = in vivo; details: mouse, po
[7] = Half life in rat at 12 mg/kg, po by HPLC-MS analysis; assay type: ADME, organism-based; set-up: dose 12 mg/kg, route oral; details: in vivo
[8] = biological target: T1, 5-hydroxytryptamine receptor 1A (Homo sapiens, UniProt P08908)
T1 sequence (P08908 whole entry): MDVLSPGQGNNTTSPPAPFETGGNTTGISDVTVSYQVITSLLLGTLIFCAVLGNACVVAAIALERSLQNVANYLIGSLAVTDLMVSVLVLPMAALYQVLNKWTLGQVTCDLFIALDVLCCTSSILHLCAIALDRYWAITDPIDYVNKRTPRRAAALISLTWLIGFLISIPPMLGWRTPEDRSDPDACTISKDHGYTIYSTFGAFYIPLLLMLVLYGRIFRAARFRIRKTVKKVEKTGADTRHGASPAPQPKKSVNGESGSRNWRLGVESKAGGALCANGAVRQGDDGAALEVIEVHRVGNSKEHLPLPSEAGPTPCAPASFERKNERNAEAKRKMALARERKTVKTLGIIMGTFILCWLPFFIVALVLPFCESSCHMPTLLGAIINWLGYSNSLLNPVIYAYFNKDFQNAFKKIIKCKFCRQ
Description: Antagonist activity at 5HT1A receptor (unknown origin) expressed in CHOK1 cells coexpressing Galpha15 assessed as inhibition of agonist-induced response incubated for 60 mins in incubator followed by 15 mins at room temperature by FLIPR assay

[9] = tested on: Rattus norvegicus; assay: Toxicity in rat assessed as QT interval prolongation/cardiac liability at 5 to 60 mg/kg, po by electrophysiology assay; assay type: organism-based; set-up: dose 5-60 mg/kg, route oral; details: in vivo

Chain of D(2) dopamine receptor (P14416 whole entry): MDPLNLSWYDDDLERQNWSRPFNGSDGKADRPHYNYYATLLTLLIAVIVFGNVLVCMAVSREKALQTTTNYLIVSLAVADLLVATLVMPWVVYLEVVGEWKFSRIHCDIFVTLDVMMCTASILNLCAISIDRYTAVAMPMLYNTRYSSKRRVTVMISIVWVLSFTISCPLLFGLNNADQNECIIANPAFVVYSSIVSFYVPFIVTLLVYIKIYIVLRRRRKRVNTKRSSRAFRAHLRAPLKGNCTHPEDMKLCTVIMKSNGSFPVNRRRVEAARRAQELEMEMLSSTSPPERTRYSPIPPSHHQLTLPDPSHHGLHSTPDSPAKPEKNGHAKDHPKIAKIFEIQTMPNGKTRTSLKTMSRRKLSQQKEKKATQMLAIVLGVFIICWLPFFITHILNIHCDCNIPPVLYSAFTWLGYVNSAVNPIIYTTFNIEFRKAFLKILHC

**Q.** With `Cc1cc(=O)oc2c(Cl)c(OCCCCN3CCC(c4noc5cc(F)ccc45)CC3)ccc12` as the compound, how does the Activity [1] read?
**A.** Its Activity is “Dose-dependent effect”.

**Q.** And the ED50 ([1]; 1 h)?
**A.** The ED50 was 6.5 mg/kg.

**Q.** What about the ED50 [2] of the same compound?
**A.** Its ED50 is 0.14 mg/kg.

**Q.** And the AUC(0-t) at 12 h [3]?
**A.** The AUC(0-t) at 12 h was 822 ng·h/mL.

**Q.** And the Activity [4]?
**A.** Its Activity is 2%.

**Q.** And the AUC(0-inf) [5]?
**A.** Its AUC(0-inf) is 914 ng·h/mL.

**Q.** What about the selectivity ratio [6] of the same compound?
**A.** Its selectivity ratio is 221.

**Q.** What about the half-life [7] of the same compound?
**A.** Its half-life is 6.7 h.

**Q.** And the IC50 [8]?
**A.** Its IC50 is 11.8 nM.

**Q.** What about the Activity [9] of the same compound?
**A.** Its Activity is “Non-toxic”.
